Laboratory results taken from patent US11932634B2 (Gilead Sciences, Inc., priority 2021, dated 2024).

Experiments:
[1] = system: Jurkat NFκB-luciferase cells; experiment: Jurkat NFκB-Luciferase Assay; assay type: cell-based; conditions: Homo sapiens; Jurkat NFκB-luciferase cells activated with anti-CD3 antibody (OKT3), 2.5 hrs at 37° C., One-Glo Ex; geometric mean; read-out: DGK NFKb Luciferase EC50;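 note: bioluminescence read-out normalized to DMSO basal activation and to maximum enhancement at 1 µM compound, rising signal indicating stronger T-cell activation through DGKα inhibition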
human DGKα = biological target: T1, human DGKα (Homo sapiens, UniProt P23743); experiment: DGKα Biochemical Activity Assay (ADP-Glo);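 note: recombinant enzyme converting diacylglycerol in lipid micelles with ATP, ADP formed detected by luminescence, IC50 from a four-parameter nonlinear fit, geometric mean across experiments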
T1 construct: purchased Carna Biosciences'; inferred from the same paragraph's 'obtained from Carna Biosciences')
T1 sequence (P23743 whole entry): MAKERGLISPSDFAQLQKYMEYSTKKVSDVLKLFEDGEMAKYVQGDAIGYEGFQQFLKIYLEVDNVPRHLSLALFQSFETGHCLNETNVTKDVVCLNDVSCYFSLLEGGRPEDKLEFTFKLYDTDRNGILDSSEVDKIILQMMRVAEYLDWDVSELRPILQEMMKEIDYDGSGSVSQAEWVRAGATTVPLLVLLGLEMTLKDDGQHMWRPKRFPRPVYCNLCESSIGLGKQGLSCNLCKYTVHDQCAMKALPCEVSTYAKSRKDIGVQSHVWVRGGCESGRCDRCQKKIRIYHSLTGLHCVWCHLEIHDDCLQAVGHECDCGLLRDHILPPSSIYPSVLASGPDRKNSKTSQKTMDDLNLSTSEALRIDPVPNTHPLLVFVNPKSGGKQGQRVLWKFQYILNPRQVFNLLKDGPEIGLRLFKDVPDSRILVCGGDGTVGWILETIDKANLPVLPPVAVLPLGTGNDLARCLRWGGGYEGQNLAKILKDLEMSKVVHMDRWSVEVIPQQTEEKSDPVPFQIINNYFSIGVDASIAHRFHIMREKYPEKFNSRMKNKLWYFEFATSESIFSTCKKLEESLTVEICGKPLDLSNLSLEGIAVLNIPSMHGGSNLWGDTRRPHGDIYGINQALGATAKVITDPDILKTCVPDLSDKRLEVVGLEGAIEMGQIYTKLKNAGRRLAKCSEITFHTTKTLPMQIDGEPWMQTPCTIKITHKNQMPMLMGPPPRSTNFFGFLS
From the text: Alternatively, the enzymatic activity of human DGKα was monitored in a biochemical assay in the presence or absence of compounds and using micelles containing 18:1 Diacylglycerol (DAG), 16:0-18:1 PS (POPS) and Octylglucoside as substrate. DGKα activity led to conversion of DAG and ATP to Phosphatidic Acid (PA) and ADP. Levels of ADP were monitored by bioluminescence using the ADP-Glo Kinase Assay (Promega) and were indicative of DGKα activity.
Ten nanoliters of test compound dissolved in DMSO at various concentrations were dispensed into a 384-well low volume nonbinding service white plates (Corning #3824) using a Labcyte Echo instrument. Recombinant DGKα Biosciences) in assay buffer (5 μL in 50 mM MOPS [3-(N-morpholino) propanesulfonic acid], pH 7.2; 0.0025% Triton X-100; 1 mM dithiothreitol; 5 mM MgCl2, 200 μM ATP) was added to the compound-containing plate and was incubated for 15 minutes at 25° C. A substrate solution (5 μL in 1.7 mM 1,2-dioleoyl-sn-glycerol [18:1 DAG], 13.5 mM 1-palmitoyl-2-oleoyl-sn-glycero-3-phospho-L-serine [16:0-18:1 PS](POPS), 2 μM CaCl2), 100 mM Octylglucoside (OG), 1 mM DTT) (obtained from Carna Biosciences) diluted in DGK ALPHA assay buffer was then added to start the reaction. Final concentrations were 1 nM DGKα, 100 μM ATP, 1 μM calcium chloride, 0.85 mM 1,2-dioleoyl-sn-glycerol (18:1 DAG), 6.75 mM 1-palmitoyl-2-oleoyl-sn-glycero-3-phospho-L-serine (16:0-18:1 PS) (POPS), 1 μM CaCl2), 50 mM Octylglucoside (OG) and 5 mM MgCl2. The reaction mixture was incubated at 25° C. for 1 hour. ADP-Glo Reagent (10 μL, 10 mM Mg added) provided by the kit was added to each well and incubated at 25° C. for 40 minutes. Then, 20 μL of Kinase Detection Reagent was added and incubated at 25° C. for 40 minutes. Luciferase activity of each well was measured via luminescence on an Envision plate reader (PerkinElmer).
Least squares curve fittings were performed using a four-parameter variable slope nonlinear regression model. […] IC50 values from multiple experiments were averaged by geometric mean and the standard deviation was calculated.

| Compound | EC50 [1] [nM] | IC50 (human DGKα) [nM] |
| --- | --- | --- |
| [2H]C([2H])([2H])n1c(=O)nc(N2CCOCc3c(C#Cc4coc(C)n4)cccc32)c2c(F)cccc21 [Example 177, 5-fluoro-1-(methyl-d3)-4-(6-((2-methyloxazol-4-yl)ethynyl)-2,3-dihydrobenzo[e][1,4]oxazepin-1(5H)-yl)quinazolin-2(1H)-one] | 18.8 | 17.5 |
| [2H]C([2H])([2H])n1c(=O)nc(N2CCCc3c(C#CC4(C)CC4)cncc32)c2c(F)c(F)ccc21 [Example 159, 5,6-difluoro-1-(methyl-d3)-4-(5-((1-methylcyclopropyl)ethynyl)-3,4-dihydro-1,7-naphthyridin-1(2H)-yl)quinazolin-2(1H)-one] | 0.685 | 2.03 |
| CC(F)(F)C1(C#Cc2cncc3c2CCCN3c2nc(=O)[nH]c3ccc(F)c(F)c23)CC1 [Example 76, 4-(5-((1-(1,1-difluoroethyl)cyclopropyl)ethynyl)-3,4-dihydro-1,7-naphthyridin-1(2H)-yl)-5,6-difluoroquinazolin-2(1H)-one] | 1.51 | 16.1 |
| O=c1nc(N2CCCc3c(C#CC4(C(F)(F)F)CC4)cccc32)c2c(F)cccc2[nH]1 [Example 19, 5-fluoro-4-[5-[2-[1-(trifluoromethyl)cyclopropyl]ethynyl]-3,4-dihydro-2H-quinolin-1-yl]-1H-quinazolin-2-one] | 0.63 | 62.5 |
| CC(C)(C#N)C#Cc1cccc2c1COCCN2c1nc(=O)[nH]c2c(F)cc(F)cc12 [Example 104] | 5.21 | 4.88 |
| [2H]C([2H])([2H])n1c(=O)nc(N2CCOCc3c(C#CC(C)(C)NC(=O)C(C)(C)C(F)F)cccc32)c2c(F)cccc21 [Example 179, 3,3-difluoro-N-(4-(1-(5-fluoro-1-(methyl-d3)-2-oxo-1,2-dihydroquinazolin-4-yl)-1,2,3,5-tetrahydrobenzo[e][1,4]oxazepin-6-yl)-2-methylbut-3-yn-2-yl)-2,2-dimethylpropanamide] | 15.1 | 3.48 |
| [2H]C([2H])([2H])n1c(=O)nc(N(CC(F)F)c2cc(F)cc(-c3cnc(C4CC4)cn3)c2)c2c(F)cccc21 [Example 44, 4-[3-(5-cyclopropylpyrazin-2-yl)-N-(2,2-difluoroethyl)-5-fluoro-anilino]-5-fluoro-1-(trideuteriomethyl)quinazolin-2-one] | 1.43 | 11.2 |
| [2H]C([2H])([2H])n1c(=O)nc(N(CC(F)(F)F)c2cccc(C#CC3(C(F)(F)F)CC3)c2)c2ccc(Cl)cc21 [Example 25, 7-chloro-1-(trideuteriomethyl)-4-[N-(2,2,2-trifluoroethyl)-3-[2-[1-(trifluoromethyl)cyclopropyl]ethynyl]anilino]quinazolin-2-one] | 0.405 | 58.8 |
| [2H]C([2H])([2H])n1c(=O)nc(N2CCCc3c2ccnc3C#CC2(C(F)(F)F)CC2)c2c(F)cccc21 [Example 142, 5-fluoro-1-(trideuteriomethyl)-4-[5-[2-[1-(trifluoromethyl)cyclopropyl]ethynyl]-3,4-dihydro-2H-1,6-naphthyridin-1-yl]quinazolin-2-one] | 8.25 | 8.91 |
| O=c1nc(N(CC(F)F)c2cc(F)cc(C#CC3(C(F)(F)F)CC3)c2)c2ccc(Cl)cc2n1CCO [Example 33, 7-chloro-4-[N-(2,2-difluoroethyl)-3-fluoro-5-[2-[1-(trifluoromethyl)cyclopropyl]ethynyl]anilino]-1-(2-hydroxyethyl)quinazolin-2-one] | 3.65 | 284 |
| [2H]C([2H])([2H])n1c(=O)nc(N2CCOCc3c(C#CC(C)(C)N)cccc32)c2c(F)cccc21 [Example 175, 4-(6-(3-amino-3-methylbut-1-yn-1-yl)-2,3-dihydrobenzo[e][1,4]oxazepin-1(5H)-yl)-5-fluoro-1-(methyl-d3)quinazolin-2(1H)-one] | 21.3 | 122 |
| CC1(C#Cc2cccc3c2COCCN3c2nc(=O)[nH]c3c(F)cc(F)cc23)CC1 [Example 105] | 0.85 | 6.96 |
| [2H]C([2H])([2H])n1c(=O)nc(N2CCOCc3c(C#CC(C)(C)O)cccc32)c2c(F)cccc21 [Example 94, 5-fluoro-4-[6-(3-hydroxy-3-methyl-but-1-ynyl)-3,5-dihydro-2H-4,1-benzoxazepin-1-yl]-1-(trideuteriomethyl)quinazolin-2-one] | 16.1 | 7.77 |
| O=c1nc(N2CCCc3c(Br)cncc32)c2c(F)cccc2[nH]1 [Example 70, 4-(5-bromo-3,4-dihydro-1,7-naphthyridin-1(2H)-yl)-5-fluoroquinazolin-2(1H)-one] | 40.9 | 170 |
| CC(C)(C)C(O)C#Cc1cccc2c1CCCN2c1nc(=O)[nH]c2cccc(F)c12 (stereo not shown) [Example 53, 5-fluoro-4-[5-(3-hydroxy-4,4-dimethyl-pent-1-ynyl)-3,4-dihydro-2H-quinolin-1-yl]-1H-quinazolin-2-one] | 2.74 | 47.8 |
| O=c1nc(N2CCCCc3c(C#CC4(C(F)(F)F)CC4)cncc32)c2c(F)c(F)ccc2[nH]1 [Example 151, 5,6-difluoro-4-(6-((1-(trifluoromethyl)cyclopropyl)ethynyl)-2,3,4,5-tetrahydro-1H-pyrido[3,4-b]azepin-1-yl)quinazolin-2(1H)-one] | 0.954 | 18 |
| CC(C)(O)C#Cc1cccc2c1COCCN2c1nc(=O)[nH]c2c(F)cc(F)cc12 [Example 103] | 47.4 | 8.98 |
| [2H]C([2H])([2H])n1c(=O)nc(N2CCOCc3c(C#CC45CC(CN4C)C5)cccc32)c2c(F)cccc21 [Example 174, 5-fluoro-4-[6-[2-(2-methyl-2-azabicyclo[2.1.1]hexan-1-yl)ethynyl]-3,5-dihydro-2H-4,1-benzoxazepin-1-yl]-1-(trideuteriomethyl)quinazolin-2-one] | 32.9 | 66.4 |
| [2H]C([2H])([2H])n1c(=O)nc(N(CC(F)F)c2ccnc(C#CC3(C)CC3)c2)c2c(F)c(F)ccc21 [Example 117, 4-[2,2-difluoroethyl-[2-[2-(1-methylcyclopropyl)ethynyl]-4-pyridyl]amino]-5,6-difluoro-1-(trideuteriomethyl)quinazolin-2-one] | 4.7 | 3.36 |
| [2H]C([2H])([2H])n1c(=O)nc(N2CCOCc3c(C#CC(C)(C)O)cccc32)c2c(F)c(F)ccc21 [Example 97, 5,6-difluoro-4-[6-(3-hydroxy-3-methyl-but-1-ynyl)-3,5-dihydro-2H-4,1-benzoxazepin-1-yl]-1-(trideuteriomethyl)quinazolin-2-one] | 15.8 | 4.37 |
| CC(F)(F)C1(C#Cc2cncc3c2CCCN3c2nc(=O)[nH]c3cccc(F)c23)CC1 [Example 73, 4-(5-((1-(1,1-difluoroethyl)cyclopropyl)ethynyl)-3,4-dihydro-1,7-naphthyridin-1(2H)-yl)-5-fluoroquinazolin-2(1H)-one] | 1.89 | 18.1 |
| [2H]C([2H])([2H])n1c(=O)nc(N(CC(F)F)c2cc(F)cc(C#CC(C)(C)O)c2)c2c(F)c(F)ccc21 [Example 64, 4-[N-(2,2-difluoroethyl)-3-fluoro-5-(3-hydroxy-3-methyl-but-1-ynyl)anilino]-5,6-difluoro-1-(trideuteriomethyl)quinazolin-2-one] | 8.99 | 10.7 |
| [2H]C([2H])([2H])n1c(=O)nc(N(CC(F)F)c2ccnc(C#Cc3cnn(C)c3)c2)c2c(F)cccc21 [Example 137, 4-[2,2-difluoroethyl-[2-[2-(1-methylpyrazol-4-yl)ethynyl]-4-pyridyl]amino]-5-fluoro-1-(trideuteriomethyl)quinazolin-2-one] | 24.2 | 10.2 |
| O=c1nc(N(CC(F)F)c2cc(F)cc(-c3ccc(C(F)F)nc3)c2)c2c(F)cccc2[nH]1 [Example 18, 4-[N-(2,2-difluoroethyl)-3-[6-(difluoromethyl)-3-pyridyl]-5-fluoro-anilino]-5-fluoro-1H-quinazolin-2-one] | 2.63 | 54.4 |
| [2H]C([2H])([2H])n1c(=O)nc(N2CCCc3c(C#CC4CCCN4CC(F)F)cccc32)c2c(F)cccc21 (stereo not shown) [Example 162, 4-[5-[2-[1-(2,2-difluoroethyl)pyrrolidin-2-yl]ethynyl]-3,4-dihydro-2H-quinolin-1-yl]-5-fluoro-1-(trideuteriomethyl)quinazolin-2-one] | 1.26 | 9.27 |
| CCn1c(=O)nc(N(CC(F)F)c2cc(F)cc(C#CC3(C(F)(F)F)CC3)c2)c2c(F)cccc21 [Example 36, 4-[N-(2,2-difluoroethyl)-3-fluoro-5-[2-[1-(trifluoromethyl)cyclopropyl]ethynyl]anilino]-1-ethyl-5-fluoro-quinazolin-2-one] | 21.1 | 184 |
| [2H]C([2H])([2H])n1c(=O)nc(N2CCCc3c2ccnc3C#CC(C)(C)C#N)c2c(F)c(F)ccc21 [Example 140, 4-[1-[5,6-difluoro-2-oxo-1-(trideuteriomethyl)quinazolin-4-yl]-3,4-dihydro-2H-1,6-naphthyridin-5-yl]-2,2-dimethyl-but-3-ynenitrile] | 7.54 | 15.3 |
| [2H]C([2H])([2H])n1c(=O)nc(N(CC(F)F)c2ccnc(C#CC(C)(C)C#N)c2)c2c(F)c(F)ccc21 [Example 79, 4-[4-[2,2-difluoroethyl-[5,6-difluoro-2-oxo-1-(trideuteriomethyl)quinazolin-4-yl]amino]-2-pyridyl]-2,2-dimethyl-but-3-ynenitrile] | 11.3 | 2.95 |
| CCC(C)(O)C#Cc1cccc2c1CCCN2c1nc(=O)[nH]c2cccc(F)c12 (stereo not shown) [Example 56, 5-fluoro-4-[5-(3-hydroxy-3-methyl-pent-1-ynyl)-3,4-dihydro-2H-quinolin-1-yl]-1H-quinazolin-2-one] | 5.16 | 31.9 |
